Columns and labels:
IL-1β = IL-1β inhibition assay (ELISA/HTRF of culture supernatants); format: cell-based; settings: Homo sapiens, PMA-differentiated THP-1 cells, tested 10 μM to 0.003 μM
Protocol: Human monocyte-like THP-1 cells were grown in RPMI media supplemented with 10% FBS (growth media) at 37° C., 5% CO2. Cell cultures were passaged every three days and maintained at a density of 5×10^5 to 1×10^6 cells per mL.
Compounds were prepared as 10 mM stock solutions in 100% DMSO. […] Each 200× dilution was then diluted 20-fold in growth media (step down dilution) to yield a 10× final assay concentration range. All compounds were tested over a final assay concentration range of 10 μM to 0.003 μM.
The level of IL-10 in supernatants from PMA-differentiated THP-1 cells was determined by ELISA using either the R&D Systems Human IL-1 beta/IL-1F2 Quantikine ELISA or the cisbio HTRF human IL 1 beta kit. Manufacturer's protocols were followed without deviation.
Background values were subtracted and resulting values were converted to percentage of vehicle-treated controls. Data was analyzed via GraphPad Prism 7.0 using a non-linear regression (variable slope (four-parameter)) equation.
Table 2 provides IL-10 ELISA EC50 values for example compounds. A indicates EC50>10 μM; B indicates EC50 between 1 and 10 μM (inclusive); C indicates EC50<1 μM.

[1] = MTT cell viability assay, THP-1 cells; format: cell-based; settings: human, unstimulated THP-1 cells, read-out: THP-1 Cytotoxicity CC50
Protocol: In order to assess the cytotoxicity of the compounds, an MTT cell viability assay was performed in either unstimulated THP-1 or HepG2 cells as follows. 5×10^4 THP-1 or 5×10^3 HepG2 cells were seeded into each well of a 96-well plate in 90 μL of media. Compounds were added to cells as described for the IL-10 assay and returned to the incubator for an additional 72 hours. Next, 25 μL of MTT solution (5 mg/mL in sterile PBS) was added to each well. Plates were incubated for 3 hours at 37° C., 5% CO2. Next, for THP-1 cells, 100 μl of MTT solubilization solution (40% Dimethylformamide, 2% glacial acetic acid, 16% sodium dodecyl sulfate) was then added to each well and plates were incubated at room temperature in the dark overnight. For HepG2 cells, media was aspirated, 50 μL of DMSO was added and plates were mixed briefly with an orbital plate shaker. Absorbance at 570 nm was measured using a Perkin-Elmer EnVision plate reader.
Absorbance values were converted to percentage of vehicle-treated controls. Data was then analyzed using a non-linear regression (variable slope (four-parameter)) equation in GraphPad Prism 7.0.
Table 2 provides THP-1 cytotoxicity assay CC50 values for example compounds. A indicates CC50>10 μM; B indicates CC50 between 1 and 10 μM (inclusive); C indicates CC50<1 μM. NT, not tested.

Row | SMILES | EC50 (IL-1β) [µM] | CC50 at 72 h [1] [µM]
1 | CC(C)c1cc(B(O)O)cc(C(C)C)c1NC(=O)NS(=O)(=O)c1cnn(C(C)C)c1 [Example 24, (3,5-diisopropyl-4-(3-((1-isopropyl-1H-pyrazol-4-yl)sulfonyl)ureido)phenyl)boronic acid] | 1 to 10 | > 10
2 | C[N+]12CC(=O)O[B-]1(c1cccc(S(=O)(=O)NC(=O)Nc3c4c(cc5c3CCC5)CCC4)c1)OC(=O)C2 (stereo not drawn) [Example 26, N-((1,2,3,5,6,7-hexahydro-s-indacen-4-yl)carbamoyl)-3-(4-methyl-2,6-dioxotetrahydro-2H-414,814-[1,3,2]oxazaborolo[2,3-b][1,3,2]oxazaborol-8-yl)benzenesulfonamide] | < 1 | > 10
3 | C[N+]12CC(=O)O[B-]1(c1ccc(S(=O)(=O)NC(=O)Nc3c4c(cc5c3CCC5)CCC4)cc1)OC(=O)C2 (stereo not drawn) [Example 27, N-((1,2,3,5,6,7-hexahydro-s-indacen-4-yl)carbamoyl)-4-(4-methyl-2,6-dioxotetrahydro-2H-414,814-[1,3,2]oxazaborolo[2,3-b][1,3,2]oxazaborol-8-yl)benzenesulfonamide] | < 1 | > 10
4 | C[N+]12CCO[B-]1(c1cccc(S(=O)(=O)NC(=O)Nc3c4c(cc5c3CCC5)CCC4)c1)OCC2 (stereo not drawn) [Example 28, N-((1,2,3,5,6,7-hexahydro-s-indacen-4-yl)carbamoyl)-3-(4-methyltetrahydro-2H-414,814-[1,3,2]oxazaborolo[2,3-b][1,3,2]oxazaborol-8-yl)benzenesulfonamide] | < 1 | > 10
5 | O=C(Nc1c2c(cc3c1CCC3)CCC2)NS(=O)(=O)c1ccc2c(c1)COB2O [Example 29, N-((1,2,3,5,6,7-hexahydro-s-indacen-4-yl)carbamoyl)-1-hydroxy-1,3-dihydrobenzo[c][1,2]oxaborole-5-sulfonamide] | < 1 | > 10
6 | CC(C)c1cc(B2OC(C)(C)C(C)(C)O2)cc(C(C)C)c1NC(=O)NS(=O)(=O)c1ccn(C(C)C)n1 [Example 30, N-((2,6-diisopropyl-4-(4,4,5,5-tetramethyl-1,3,2-dioxaborolan-2-yl)phenyl)carbamoyl)-1-isopropyl-1H-pyrazole-3-sulfonamide] | 1 to 10 | > 10
7 | CC(C)c1cc(B(O)O)cc(C(C)C)c1NC(=O)NS(=O)(=O)c1ccn(C(C)C)n1 [Example 31, (3,5-diisopropyl-4-(3-((1-isopropyl-1H-pyrazol-3-yl)sulfonyl)ureido)phenyl)boronic acid] | > 10 | > 10
8 | COc1ccc(S(=O)(=O)NC(=O)Nc2c3c(cc4c2CCC4)CCC3)cc1CCB1OC(C)(C)C(C)(C)O1 [Example 32, N-((1,2,3,5,6,7-hexahydro-s-indacen-4-yl)carbamoyl)-4-methoxy-3-(2-(4,4,5,5-tetramethyl-1,3,2-dioxaborolan-2-yl)ethyl)benzenesulfonamide] | 1 to 10 | > 10
9 | O=C(Nc1c2c(cc3c1CCC3)CCC2)NS(=O)(=O)c1ccc2c(c1)CCB(O)O2 [Example 33, N-((1,2,3,5,6,7-hexahydro-s-indacen-4-yl)carbamoyl)-2-hydroxy-3,4-dihydro-2H-benzo[e][1,2]oxaborinine-6-sulfonamide] | 1 to 10 | > 10
10 | O=C(Nc1c2c(cc3c1CCC3)CCC2)NS(=O)(=O)c1cc(F)cc2c1B(O)OC2 [Example 34, 5-fluoro-N-((1,2,3,5,6,7-hexahydro-s-indacen-4-yl)carbamoyl)-1-hydroxy-1,3-dihydrobenzo[c][1,2]oxaborole-7-sulfonamide] | 1 to 10 | > 10
11 | COC(=O)c1ccc(S(=O)(=O)NC(=O)Nc2c3c(cc4c2CCC4)CCC3)cc1B(O)O [Example 35, (5-(N-((1,2,3,5,6,7-hexahydro-s-indacen-4-yl)carbamoyl)sulfamoyl)-2-(methoxycarbonyl)phenyl)boronic acid] | > 10 | > 10
12 | O=C(Nc1c2c(cc3c1CCC3)CCC2)NS(=O)(=O)c1ccc2c(c1)B(O)OC2=O [Example 36, N-((1,2,3,5,6,7-hexahydro-s-indacen-4-yl)carbamoyl)-1-hydroxy-3-oxo-1,3-dihydrobenzo[c][1,2]oxaborole-6-sulfonamide] | > 10 | > 10
13 | O=C(Nc1c2c(cc3c1CCC3)CCC2)NS(=O)(=O)c1ccc(O)c(CCCB(O)O)c1 [Example 37, (3-(5-(N-((1,2,3,5,6,7-hexahydro-s-indacen-4-yl)carbamoyl)sulfamoyl)-2-hydroxyphenyl)propyl)boronic acid] | 1 to 10 | > 10
14 | O=C(Nc1c2c(cc3c1CCC3)CCC2)NS(=O)(=O)c1ccc(O)c(CB(O)O)c1 [Example 38, (5-(N-((1,2,3,5,6,7-hexahydro-s-indacen-4-yl)carbamoyl)sulfamoyl)-2-hydroxybenzyl)boronic acid] | 1 to 10 | > 10
15 | COc1ccc(S(=O)(=O)NC(=O)Nc2c3c(cc4c2CCC4)CCC3)cc1CB(O)O [Example 39, (5-(N-((1,2,3,5,6,7-hexahydro-s-indacen-4-yl)carbamoyl)sulfamoyl)-2-methoxybenzyl)boronic acid] | 1 to 10 | > 10
16 | O=C(Nc1c2c(cc3c1CCC3)CCC2)NS(=O)(=O)c1ccc(CCCB(O)O)c(O)c1 [Example 40, (3-(4-(N-((1,2,3,5,6,7-hexahydro-s-indacen-4-yl)carbamoyl)sulfamoyl)-2-hydroxyphenyl)propyl)boronic acid] | 1 to 10 | > 10
17 | O=C(Nc1c2c(cc3c1CCC3)CCC2)NS(=O)(=O)c1ccc2c(c1)OB(O)CC2 [Example 41, N-((1,2,3,5,6,7-hexahydro-s-indacen-4-yl)carbamoyl)-2-hydroxy-3,4-dihydro-2H-benzo[e][1,2]oxaborinine-7-sulfonamide] | 1 to 10 | > 10
18 | COc1cc(S(=O)(=O)NC(=O)Nc2c3c(cc4c2CCC4)CCC3)ccc1CB1O[C@@H]2C[C@@H]3C[C@@H](C3(C)C)[C@]2(C)O1 [Example 42, N-((1,2,3,5,6,7-hexahydro-s-indacen-4-yl)carbamoyl)-3-methoxy-4-(((3aS,4S,6S,7aR)-3a,5,5-trimethylhexahydro-4,6-methanobenzo[d][1,3,2]dioxaborol-2-yl)methyl)benzenesulfonamide] | < 1 | > 10
19 | COc1ccc(S(=O)(=O)NC(=O)Nc2c3c(cc4c2CCC4)CCC3)cc1B(O)O [Example 43, (5-(N-((1,2,3,5,6,7-hexahydro-s-indacen-4-yl)carbamoyl)sulfamoyl)-2-methoxyphenyl)boronic acid] | 1 to 10 | > 10
20 | O=C(Nc1c2c(cc3c1CCC3)CCC2)NS(=O)(=O)c1ccc(CB(O)O)c(O)c1 [Example 44, (4-(N-((1,2,3,5,6,7-hexahydro-s-indacen-4-yl)carbamoyl)sulfamoyl)-2-hydroxybenzyl)boronic acid] | 1 to 10 | > 10
21 | COc1ccc(S(=O)(=O)NC(=O)Nc2c3c(cc4c2CCC4)CCC3)cc1CCCB1OC(C)(C)C(C)(C)O1 [Example 45, N-((1,2,3,5,6,7-hexahydro-s-indacen-4-yl)carbamoyl)-4-methoxy-3-(3-(4,4,5,5-tetramethyl-1,3,2-dioxaborolan-2-yl)propyl)benzenesulfonamide] | 1 to 10 | > 10
22 | CC1(C)OB(CCCc2cccc(S(=O)(=O)NC(=O)Nc3c4c(cc5c3CCC5)CCC4)c2)OC1(C)C [Example 46, N-((1,2,3,5,6,7-hexahydro-s-indacen-4-yl)carbamoyl)-3-(3-(4,4,5,5-tetramethyl-1,3,2-dioxaborolan-2-yl)propyl)benzenesulfonamide] | 1 to 10 | > 10
23 | CC1(C)OB(O)c2cc(S(=O)(=O)NC(=O)Nc3c4c(cc5c3CCC5)CCC4)ccc21 [Example 47, N-((1,2,3,5,6,7-hexahydro-s-indacen-4-yl)carbamoyl)-1-hydroxy-3,3-dimethyl-1,3-dihydrobenzo[c][1,2]oxaborole-6-sulfonamide] | 1 to 10 | > 10
24 | CC1(C)[C@@H]2C[C@H]3OB(CCCc4ccc(S(=O)(=O)NC(=O)Nc5c6c(cc7c5CCC7)CCC6)cc4O)O[C@@]3(C)[C@H]1C2 [Example 48, N-((1,2,3,5,6,7-hexahydro-s-indacen-4-yl)carbamoyl)-3-hydroxy-4-(3-((3aS,4S,6S,7aR)-3a,5,5-trimethylhexahydro-4,6-methanobenzo[d][1,3,2]dioxaborol-2-yl)propyl)benzenesulfonamide] | 1 to 10 | > 10
